The values below come from PubChem BioAssay (NCI).

In the experiment the test system is MDA-MB-468 breast. The experiment can be described thus: NCI tumour cell line growth inhibition, 48 h.

Each structure is given as a SMILES string.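 Each compound was tested at five concentrations against cells in 96-well plates for 48 hours. The concentration for 50% growth inhibition is given as GI50. At the TGI there is no net growth.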

As to `Cc1ccc(NC2=N[C@]34CC(=O)CC[C@]3(C)[C@H]3CC[C@]5(C)C(=O)CC[C@H]5[C@@H]3C[C@@H]4S2)c(C)c1`, the GI50 is 1.93 µM and the TGI came out at 3.93 µM. With `O=C1N[C@@H]2[C@@H](O)[C@@H](O)[C@H](O)C[C@H]2c2cc3c(c(O)c21)OCO3`, the GI50 was 0.058 µM and the TGI was 0.298 µM. For `N#Cc1c(-c2ccc(Cl)cc2)nc(SCc2ccccc2)nc1N1CCNCC1` the same measures were 1.71 µM and 3.46 µM. Take `C=CC(=O)N1C[C@H](COc2nc(Nc3cnn(C)c3)nc3[nH]cc(Cl)c23)[C@@H](OC)C1`: the GI50 was 0.445 µM and the TGI was determined as 2.59 µM. For `CC(=O)N1CCC(Nc2cc(C(=O)NC[C@H](O)CN3CCc4ccccc4C3)ncn2)CC1` the same measures were more than 100 µM and more than 100 µM. For `N#Cc1c(Br)n(C2OC(CO)C(O)C2O)c2ncn3ccnc3c12` (stereo not drawn) the same measures were 35.2 µM and more than 100 µM.

As to `CCCN(CCC)c1ccc(CO)c(Cl)c1`, the GI50 is 0.0469 µM and the TGI turned out to be 0.199 µM. In the case of `O=C(Nc1ccc([As]=[As]c2ccc(NC(=O)c3ccccc3)cc2)cc1)c1ccccc1` (stereo not drawn), the GI50 is 0.152 µM and the TGI came out at 0.324 µM.

On to `C=C1C(=O)O[C@H]2[C@H]1CC/C(COC(=O)CCSSCCC(=O)OC/C1=C/CC[C@@]3(C)O[C@H]3[C@H]3OC(=O)C(=C)[C@@H]3CC1)=C\CC[C@@]1(C)O[C@@H]21`, for which the GI50 was 0.543 µM and the TGI came to 2.28 µM.

As to `C[C@]12CCC(=O)CC1CC[C@@H]1C2CC[C@@]2(C)C1CC[C@@H]2OC(=O)CC[Se][Se]CCC(=O)O[C@H]1CCC2[C@@H]3CCC4CC(=O)CC[C@]4(C)C3CC[C@@]21C` (stereo partly drawn), the GI50 is 2.1 µM and the TGI is 5.06 µM. In the same order, the values of `CCCC(=O)NC(c1ccc(N(CC)CC)cc1)c1cc(C)c2cccnc2c1O` (stereo not drawn) are 0.386 µM and 1.96 µM. For `Cc1cc(Oc2ccccc2)ccc1Nc1ncnc2ccc(-c3cnc(Cl)c(NS(C)(=O)=O)c3)cc12`, the GI50 was 1.04 µM and the TGI worked out at 3.33 µM.

On to `Cc1cc(Nc2ccc3c(c2)OCO3)c2cc3c(cc2n1)OCO3`, for which the GI50 is 0.519 µM and the TGI worked out at 15 µM. For `O=C(Nc1cccc(Cl)c1)Nc1nccs1`, the GI50 is 8.83 µM and the TGI amounted to 89.5 µM.

Turning to `CCOC(=O)c1nnn(-c2no[n+]([O-])c2-c2ccc(OC)cc2)c1COc1cccc2cccnc12`, the GI50 was 2.61 µM and the TGI is 7.99 µM. Consider `C(=C1c2ccccc2-c2ccccc21)c1ccncc1`, for which the GI50 is 2.28 µM and the TGI came out at 6.64 µM.

Regarding `CN(C)CCCn1c2c(c3ccc(-c4ccn[nH]4)cc3c1=O)C(=O)c1ccccc1-2`, the GI50 is 7.84 µM and the TGI worked out at 24 µM. In the same order, the values of `Cc1nn(CCO)c(C)c1N=[N+]([O-])c1c(C)nn(CCO)c1C` are 2.84 µM and 15.8 µM. On to `COc1ccc2c(c1)NC(=O)CN2c1nc(NC2CC2)nc2ccccc12`, for which the TGI was 3.75 µM. Turning to `ClCCn1cnc2c(SCc3ccccc3Cl)ncnc21`, the GI50 is 9.76 µM and the TGI was 67.6 µM. In the same order, the values of `O=S(=O)(Nc1ccc(Cl)cc1)c1ccc(-c2cnc(C3CC3)o2)cc1` are 0.368 µM and 6.01 µM. On to `O=C(Nc1ccc(-c2nc(-c3cccc(O)c3)c(-c3ccnc(Br)c3)[nH]2)cc1)c1ccccc1`, for which the GI50 is 1.91 µM and the TGI amounted to 4.74 µM. In the same order, the values of `Oc1cccc(-c2nc(-c3n[nH]c(=S)n3-c3ccccc3)cc3c2[nH]c2ccccc23)c1` are 2.54 µM and 7.41 µM. Turning to `C[n+]1c2ccccc2c(Nc2ccc(N3CCCCC3)cc2)c2[nH]c3ccccc3c21`, the GI50 is 0.153 µM and the TGI is 0.401 µM. In the case of `COc1cc(-c2csc(NC(=O)Nc3ccc(Cl)c(C(F)(F)F)c3)n2)cc(OC)c1OC`, the GI50 is 0.775 µM and the TGI worked out at 3.85 µM. In the same order, the values of `O=Cc1cn(Cc2ccc(Cl)cc2)c2ccccc12` are 0.022 µM and 0.0801 µM. In the case of `Cc1cc(N(CCNc2ccnc3cc(Cl)ccc23)Cc2cccs2)nc(Cl)n1`, the GI50 is 1.22 µM and the TGI is 2.7 µM. Consider `C=C1C(=O)O[C@H]2[C@H]1CC/C(COC(=O)/C=C\C(=O)NCc1ccc(Cn3c(=O)sn(CCCI)c3=O)cc1)=C\CC[C@@]1(C)O[C@@H]21`, for which the GI50 is 0.519 µM and the TGI is 1.19 µM. Turning to `O=CN/N=C/c1ccc(Cl)c([N+](=O)[O-])c1`, the GI50 was 0.127 µM and the TGI was 4.26 µM.

On to `CN(C)CCCNCc1ccc(-c2ccc(F)c(Cl)c2)o1`, for which the GI50 is 8.92 µM and the TGI turned out to be 23.4 µM. For `CCOC(=O)/C=C1/SC(N2CCCCC2)C(=O)N1CC` (stereo not drawn) the same measures were more than 100 µM and more than 100 µM. As for `CCCCCCCC(=O)SCC/C=C/[C@@H]1CC(=O)NCc2cccc(n2)CN(Cc2ccc3ccccc3c2)CC(=O)N[C@@H](C(C)C)C(=O)O1`, the GI50 was 33.3 µM and the TGI was more than 100 µM. `OCc1ccc(N(Cc2ccc(F)cc2)CC2CC2)cc1Cl`: the GI50 was 0.0189 µM and the TGI was 0.0686 µM. As for `Cc1ccc(Cl)cc1-c1nc(N)nc(Nc2ccc(Br)cc2)n1`, the GI50 was 0.175 µM and the TGI was 0.614 µM. Regarding `O=C(N/N=C/c1c(Cl)cccc1Cl)c1cccnc1Nc1cccc(C(F)(F)F)c1`, the GI50 is 0.951 µM and the TGI came out at 9.27 µM. For `CC(C)C[C@H](NC(=O)Cn1ccc(Nc2ccccc2)cc1=O)B(O)O` the same measures were 0.423 µM and 5.88 µM. For `C[CH2][Pb]([CH2]C)([CH2]C)[O]C(=O)COc1ccccc1` the same measures were 0.23 µM and 0.659 µM. For `N#CC1=C(N)Oc2c(ccc3ccccc23)C1c1cccs1` (stereo not drawn) the same measures were 0.0375 µM and 13.7 µM.

For `O=c1ccc2nc(C(F)(F)F)nn(-c3ccccc3)c-2c1`, the GI50 is 1.06 µM and the TGI was found to be 2.98 µM.

Take `C=C1C(=O)O[C@H]2[C@H]1CC/C(COC(=O)CCCC(=O)OC/C1=C/CC[C@@]3(C)O[C@H]3[C@H]3OC(=O)C(=C)[C@@H]3CC1)=C\CC[C@@]1(C)O[C@@H]21`: the GI50 is 1.51 µM and the TGI came out at 5.3 µM. `CC1(C)CC[C@]2(C(N)=O)CC[C@]3(C)C(=CC[C@@H]4[C@@]5(C)C/C(=C/c6cccnc6)C(=O)C(C)(C)[C@@H]5CC[C@]43C)[C@@H]2C1`: the GI50 is 3.2 µM and the TGI is more than 100 µM.

Turning to `O=C(CCCCN1CCOCC1)Nc1ccc(Cn2nnc3c2C(=O)c2nnn(Cc4ccc(NC(=O)CCCCN5CCOCC5)cc4)c2C3=O)cc1`, the GI50 was 0.103 µM and the TGI is 0.261 µM.
